Measurements: patent publication US20080146987A1, “TREATMENT OF A SKIN CONDITION USING A PIPERINE-BASED COMPOSITION IN CONJUNCTION WITH IRRADIATION” (OREGON HEALTH & SCIENCE UNIVERSITY, priority 2006, published 2008)

Tested on: HRA.HRII-c/+/Skh hairless pigmented mice
Assay: visual pigmentation score after topical compounds with or without UVB, 13-week protocols
Format: in vivo
Details: HRA/Skh-II mice, four or more weeks
Procedure: Male and female inbred HRA.HRII-c/+/Skh hairless pigmented mice, age-matched (8-16 weeks old), were used in the following in vivo experiments for evaluation of pigmentation induced by piperine and/or UVR.
In one experiment, the compounds used included piperine, THP, CHP, and RCHP, each prepared in DMSO at a 50 mg/ml concentration, and applied to the backs of mice (n=4) twice daily on weekdays for 13 weeks, as shown in FIG. 3. As shown, Group A received treatment with compounds only from week 1-13. Group B was treated with compound from week 1-13, with additional UVB irradiation from weeks 5-13. Group F received UVB alone (no topical treatment) for 9 weeks, corresponding to weeks 5-13. Groups C, D and E were treated as Group B from weeks 1-7. All treatments was suspended for 3 weeks (8-10) and re-started as topical treatment with compounds only (Group C), UVB only (Group D), or topical treatment with UVB (Group E) from weeks 11-13.
Pigmentation was assessed visually by an investigator blinded to the treatment that the animals had received using the following scoring system: 0—no pigmentation; 1—first signs of pigmentation (spots); 2—light brown; 3—medium brown; 4—dark brown; 5—black. Scores obtained at the end of each week (Friday) are shown in FIG. 4 (piperine noted as PIP). […]

## O=C(CCCCc1ccc2c(c1)OCO2)NC1CCCCC1 [RCHP, 5-(3,4-methylenedioxyphenyl)-2,4-pentanoylcyclohexylamine]
  skin pigmentation in vivo after continuous topical application: stimulate the development of even skin pigmentation
